Data taken from article PMC7270110, “Labeled oxytocin administered via the intranasal route reaches the brain in rhesus macaques” (Nature Communications, 2020).
Several values for one entry are separate records, joined by “and”; a condition that tells them apart may be missing. Equal values may be shown once. Blank lines part the entries; values can stand above or below the molecule they belong to.

What was measured:
[1] = nonhuman primate, cited from earlier work
Description: […] For IV administration, 1 ml was administered via a peripheral IV catheter. For IN administration, an IN Mucosal Atomization Device [MAD, Teleflex Medical, Research Triangle Park, NC] was used. This same device was used in our previous nonhuman primate study. […] Of not ...

[2] = LOQ 10 pg/ml, cited from earlier work
Description: Further, at 60 min in the previous study, the CSF concentrations of d5OT after IN delivery of 80 IU were highly variable (11, 16, 67, and 221 pg/ml), and would have been detectable in only two of the monkeys using the a ... || page 8: 4. It is surprising that no CSF d5 OT was detected at 60 or 120 minutes in CSF after IN administration. […] In our previous study (Lee et al., Mol Psychiatry 2018), after IN administration, CSF d5OT concentration at 60 minutes was quantified in 4 monkeys as follows: 11.28, 15.99, 67.65 and 221.62 pg/ml. In this previous study, the limit of quantification (LOQ) for d5OT was 10 pg/ml. The LOQ of d5OT in the present study was 100 pg/ml and the method dete ...

[3] = Brain tissue concentration of administered d5OT by LC-MS/MS (terminal experiment); type: in vivo, rhesus macaques (Macaca mulatta); set-up: key to BRAIN d5OT concentration: ND: not detected; +: detected but not quantifiable; details: for tissue level at time at 148 min: female
Description: Monkeys were divided into three groups, each with two monkeys; each group received the following in a terminal study at the 5th week: Group 1 (Monkeys ID# 1 and ID# 5) received 40 IU of d5OT IN, Group 2 received 80 IU of d5OT IN (Monkeys ID# 2 and ID# 4) and Group 3 received 80 IU of d5OT IV (Monkeys ID# 3 and ID# 6). Animals were perfused on average, 140 ± 7 (mean ± SD) min after d5OT administration (range = 135–149 min) (Table 4). Plasma and CSF were drawn just before administration of d5OT, at the midpoint between d5OT administration and perfusion (~60 min post-d5OT administration), and just before perfusion.
Brain tissue distribution of d5OT, as well as the endogenous concentrations of OT (d0OT), were measured in the following 12 brain regions: cerebellum, brainstem, striatum, amygdala, thalamus, visual cortex, insular cortex, hypothalamus, hippocampus, mPFC (Brodmann areas 32,25,24), dPFC (Brodmann areas 46,9,10), and OFC (Brodmann areas 14,13,12) (Tables 1, 2 and 3).
Brain tissue sample preparation: Samples (~1.5 mg per sample) were individually weighed and placed into 12 mm × 75 mm glass tubes containing 1.5 ml ice-cold 1 M acetic acid and 30 µl of OT-d10 internal standard. Tissues were homogenized on ice and the resulting homogenates were poured into individual 15 ml polystyrene tubes. The original glass tube was rinsed with 1 ml acetonitrile, and this rinse was added to the appropriate 15 ml polystyrene tube containing the homogenate. After all homogenizations were complete, 3 ml acetonitrile was added to each tube and extraction proceeded, as described for the plasma and CSF samples.
LC–MS/MS instrument parameters: Microtiter plates were prepared, as described above, and loaded onto a SIL-30ACMP autosampler set at 4 °C (Shimadzu). Forty microliters of each standard, QC or sample were injected onto an ACE Excel 2 C18-PFP 50 mm × 2.1 mm column (Advanced Chromatography Technologies, LTD, Aberdeen, Scotland) at 50 °C using reversed-phase chromatography. Mobile phase A was 0.1% formic acid in water and mobile phase B was 0.1% formic acid in ACN. The LC time gradient was created using two Nexera LC-30AD pumps (Shimadzu) running at 0.5 ml/min. Chromatography for serum and CSF samples began at 10% B and ended at 16% B at 3.6 min. One minute at 60% B was then required to wash the column, and the pumps re-equilibrated at 10% B for an additional 1.7 min (total run time ~6 min). Outside of the 1.55–3.55 min window during which OT eluted, a divert valve sent the LC effluent to waste.
Heated electrospray […] in positive mode, with scheduled multiple reaction monitoring (MRM) on a Shimadzu LCMS-8050, was used for detection of OT. The interface temperature was 270 °C and heat block temperature was 170 °C. Gas was supplied by a Peak Genius 1051 nitrogen and air generator (Peak Scientific, Inchinnan, UK). Nitrogen gas was used for nebulizing (1 L/min) and drying (8.2 L/min), while air was used for heating (7.8 L/min). A capillary B needle was used in the interface. Needle protrusion was set to 1.25 mm and probe distance was set to 1.0 mm; both were determined empirically. Argon (Airgas, Radnor, PA) was used for the collision-induced dissociation at 330 kPa. The MS/MS conditions for OT were optimized using the automated MRM optimization procedure in LabSolutions software (Shimadzu). We collected two MRM transitions each, for d0OT (1007.40 > 723.40 and 1007.40 > 285.30), d5OT (1012.00 > 723.40 and 1012.00 > 290.35), and d10OT (1017.70 > 723.35 and 1017.70 > 295.40); the first transition listed in each case was used for quantitation, while the second was used as a reference ion. Retention times for d0OT, d5OT, and d10OT were 3.290, 3.270, and 3.253 min, respectively.
The sensitivities of each assay within the method were determined by the lowest and highest concentration calibrators in the calibration curve. The lower limit of quantitation (LLOQ) for d0OT was 10 pg/ml (4 pg/col); the LLOQ for d5OT was 100 pg/ml (40 pg/col). […]

Compound: CC[C@H](C)[C@@H]1NC(=O)[C@H](Cc2ccc(O)cc2)NC(=O)[C@@H](N)CSSC[C@@H](C(=O)N2CCC[C@H]2C(=O)N[C@@H](CC(C)C)C(=O)NCC(N)=O)NC(=O)[C@H](CC(N)=O)NC(=O)[C@H](CCC(N)=O)NC1=O [OT, oxytocin]
Concentration of CSF OT ([1]; IN administration of unlabeled OT with a different IN device): no increased concentration
CSF OT concentrations ([1]; OT 48 IU, MAD spray and nebulizer): significant elevations

Brain penetrance of d5OT in the striatum, % of the dose delivered IN ([3]; 40 IU IN, assuming ~20% of delivered volume reaches upper nasal cavity): ~0.03%
BRAIN d5OT concentration ([3]; Amygdala, 40 IU IN, monkey #5 (F), perfused 138 min post-dose, LC-MS/MS): +
BRAIN d5OT concentration ([3]; Brainstem, 40 IU IN, monkey #1 (F), perfused 148 min post-dose, LC-MS/MS): +
BRAIN d5OT concentration ([3]; Brainstem, 80 IU IN, monkey #2 (M), 136 min post-dose, molarity calculated for extracellular fluid volume (20% of brain volume)): < 1 nM
BRAIN d5OT concentration ([3]; Brainstem, 80 IU IN, monkey #2 (M), perfused 136 min post-dose, LC-MS/MS): 0.14 pg/mg
BRAIN d5OT concentration ([3]; Brainstem, 80 IU IN, monkey #4 (M), 135 min post-dose, molarity calculated for extracellular fluid volume (20% of brain volume)): 1 nM
BRAIN d5OT concentration ([3]; Brainstem, 80 IU IV, monkey #6 (F), perfused 135 min post-dose, LC-MS/MS): +
BRAIN d5OT concentration ([3]; Cerebellum, 80 IU IN, monkey #4 (M), perfused 135 min post-dose, LC-MS/MS): +
BRAIN d5OT concentration ([3]; OFC, 80 IU IN, monkey #2 (M), 136 min post-dose, molarity calculated for extracellular fluid volume (20% of brain volume)): 11 nM
BRAIN d5OT concentration ([3]; Striatum, 40 IU IN, monkey #1 (F), 148 min post-dose, molarity calculated for extracellular fluid volume (20% of brain volume)): 13 nM
BRAIN d5OT concentration ([3]; Striatum, 40 IU IN, monkey #5 (F), perfused 138 min post-dose, LC-MS/MS): +
BRAIN d5OT concentration ([3]; Thalamus, 40 IU IN, monkey #1 (F), 148 min post-dose, molarity calculated for extracellular fluid volume (20% of brain volume)): 1 nM
d5OT concentration in striatum (highest), comparable to that in the OFC ([3]; after IN d5OT, Table 1): ~ 10 nM
BRAIN d5OT concentration ([3]; dPFC, 40 IU IN, monkey #5 (F), perfused 138 min post-dose, LC-MS/MS): +
BRAIN d5OT concentration ([3]; dPFC, 80 IU IN, monkey #4 (M), perfused 135 min post-dose, LC-MS/MS): +
BRAIN d5OT concentration ([3]; dPFC, 80 IU IV, monkey #6 (F), perfused 135 min post-dose, LC-MS/MS): +
tissue level at time at 148 min ([3]; rhesus monkey, brain (striatum), Striatum, 40 IU IN, monkey #1 (F), perfused 148 min post-dose, LC-MS/MS): 2.41 ng/g
tissue level at time at 148 min ([3]; rhesus monkey, brain (thalamus), Thalamus, 40 IU IN, monkey #1 (F), perfused 148 min post-dose, LC-MS/MS): 0.23 ng/g
BRAIN d5OT concentration ([3]; mPFC, 80 IU IV, monkey #6 (F), perfused 135 min post-dose, LC-MS/MS): +
tissue level at time at 136 min ([3]; male, rhesus monkey, brain (OFC), OFC, 80 IU IN, monkey #2 (M), perfused 136 min post-dose, LC-MS/MS): 2.04 ng/g
tissue level at time at 2.25 h ([3]; male, rhesus monkey, brain (brainstem), Brainstem, 80 IU IN, monkey #4 (M), perfused 135 min post-dose, LC-MS/MS): 0.24 ng/g
Brain concentrations of d5OT after IN delivery ([3]; on the order of, Table 1): ≥ 1 nM
Compound: CC[C@H](C)[C@@H]1NC(=O)[C@H](Cc2ccc(O)cc2)NC(=O)[C@@H](N)CSSC[C@@H](C(=O)N2CCC[C@H]2C(=O)N[C@@H](CC(C)C)C(=O)NCC(N)=O)NC(=O)[C@H](CC(N)=O)NC(=O)[C@H](CCC(N)=O)NC1=O [d5OT]
CSF concentrations of d5OT ([2]; 60 min after IN delivery of 80 IU, individual monkeys, previous study): 11 pg/mL and 16 pg/mL and 67 pg/mL and 221 pg/mL
CSF d5OT concentration ([2]; 60 minutes after IN administration, 4 individual monkeys, ref Lee et al., Mol Psychiatry 2018): 11.28 pg/mL and 15.99 pg/mL and 67.65 pg/mL and 221.62 pg/mL
